Experimental data published in patent US20250195488A1, “MEDICINE CONTAINING VITAMIN D DERIVATIVE OR PHARMACEUTICALLY ACCEPTABLE SALT OR SOLVATE THEREOF, USED IN COMBINATION WITH IMMUNOMODULATORY SUBSTANCE” (TEEJIN PHARMA LIMITED, priority 2022, published 2025).
pEC50: −log10 of the molar value.

Legend:
Format in all cases: cell-based
[1] = molecular target: T1, human VDR (Homo sapiens, UniProt P11473); assay: Evaluation of VDR transcription activity in human osteoblasts (HOS cells), luciferase reporter; details: read-out: Activity (EC50 of VDR transcriptional activity)
T1 construct: expressed in transfected cells; host or cells: HOS cells (ATCC), human osteoblast line; pcDNA3 expression vector
T1 sequence (P11473 1-427): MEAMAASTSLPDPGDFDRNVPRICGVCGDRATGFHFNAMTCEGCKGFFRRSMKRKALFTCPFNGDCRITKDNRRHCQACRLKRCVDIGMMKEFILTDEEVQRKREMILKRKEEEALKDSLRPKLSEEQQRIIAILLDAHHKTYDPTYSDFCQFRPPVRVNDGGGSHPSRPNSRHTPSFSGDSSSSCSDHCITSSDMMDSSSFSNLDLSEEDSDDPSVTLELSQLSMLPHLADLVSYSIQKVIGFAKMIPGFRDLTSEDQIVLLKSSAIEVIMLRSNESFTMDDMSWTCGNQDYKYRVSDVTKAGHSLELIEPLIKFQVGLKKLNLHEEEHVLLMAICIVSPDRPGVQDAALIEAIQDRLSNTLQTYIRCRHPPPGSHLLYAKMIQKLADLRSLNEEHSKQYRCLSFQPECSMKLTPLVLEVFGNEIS
T1 sequence (P19793 1-462 partner): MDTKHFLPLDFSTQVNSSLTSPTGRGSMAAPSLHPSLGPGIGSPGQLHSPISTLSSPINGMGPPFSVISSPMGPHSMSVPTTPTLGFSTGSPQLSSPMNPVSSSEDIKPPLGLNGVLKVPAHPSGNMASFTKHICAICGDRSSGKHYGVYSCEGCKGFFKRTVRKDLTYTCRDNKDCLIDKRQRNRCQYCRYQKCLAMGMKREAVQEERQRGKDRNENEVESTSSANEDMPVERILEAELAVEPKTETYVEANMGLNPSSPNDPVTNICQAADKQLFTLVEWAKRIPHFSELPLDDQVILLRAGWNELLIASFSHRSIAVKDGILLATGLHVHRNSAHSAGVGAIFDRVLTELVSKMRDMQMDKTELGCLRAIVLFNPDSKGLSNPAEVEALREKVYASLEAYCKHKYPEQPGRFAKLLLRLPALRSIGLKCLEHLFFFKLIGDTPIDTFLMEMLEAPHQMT
Protocol: (1) A reporter vector was constructed using pGL4.26 vector (Promega Corporation) and incorporating a sequence of DR3 (×4) gene promoter portion upstream of the luciferase gene. An expression vector was constructed by inserting a DNA sequence encoding human VDR and human RXRα into pcDNA3 vector (Thermo Fisher Scientific, Inc.). Human RenillaLuc-CMV vector (Promega Corporation) was used for the correction of gene transfer efficiency. HOS cells (ATCC) were cultured in DMEM medium containing 10% FBS under the condition of 37° C. and 5% CO2, and passaged every 2 or 3 days. (2) The passaged cells were collected by centrifugation and dispersed in phenol red free DMEM medium containing deactivated and 5% charcoal-treated fetal bovine serum (CSS) at a density of 4×10^5 cells/mL, and then the various vectors described in (1) were introduced using Lipofectamine LTX (Thermo Fisher Scientific, Inc.) reagent at a ratio of 0.25 mL per 1 mL of the cell solution. […] (3) After the incubation for 21 hours under the condition of 37° C. and 5% CO2, the luciferase activity was measured by multi-label counter EnVision (PerkinElmer, Inc.) using Dual-Glo Luciferase Assay kit (Promega Corporation). At the same time, the activity of Renilla luciferase was measured and used to correct the gene transfer efficiency.

[2] = test system: rat oligodendrocyte progenitor cells; assay: Promotive activity of rat oligodendrocyte progenitor cell differentiation-2 (immunostaining of MBP); details: Test 2; vitamin D derivative 2 μM, T3 30 nM, 4 days; DMSO 0.07
Protocol: The promotive activity of oligodendrocyte progenitor cell (OPC) differentiation of the vitamin D derivatives was evaluated by immunostaining of MBP.
Subsequently, oligodendrocyte progenitor cell separation medium was added to the flask, and the mixture was similarly shaken for about 22 hours (37° C., 200 rpm), and the supernatant was collected to prepare oligodendrocyte progenitor cells.

[3] = test system: rat oligodendrocyte progenitor cells; assay: Promotive activity of rat oligodendrocyte progenitor cell differentiation-1 (MBP gene expression, mRNA); details: 96 h, read-out: promotive activity at T3 base (MBP gene expression; DMSO 0%, T3 100%)
Protocol: Regarding vitamin D derivatives, which was confirmed to act on the vitamin D receptor (VDR) in Example 352, the promotive activity of oligodendrocyte progenitor cell (OPC) differentiation was evaluated by MBP gene expression (mRNA).
A forebrain obtained from SD rat (Charles River Japan, 1 day old) was crushed with 70 μm Cell Strainer (Falcon #352350), and a cell suspension was prepared by collecting the cells in oligodendrocyte progenitor cell separation medium (20% FBS/2 mM Glutamax (Gibco #35050-061)/i mM sodium pyruvate (Gibco #11360-070)/1% penicillin-streptomycin (Invitrogen #15140-122)/DMEM (Gibco #11960-044)). The cell suspension was seeded in a poly-D-lysine coated T75 flask (Thermo Fisher Scientific #132704) and cultured for about 2 weeks. After culturing, the flask was shaken using a rotary shaker ([…] #WB-101SRC) for about 1 hour (37° C., 100 rpm), and the supernatant was discarded to remove microglia. Subsequently, oligodendrocyte progenitor cell separation medium was added to the flask, and the mixture was similarly shaken for about 22 hours (37° C., 200 rpm), and the supernatant was collected to prepare oligodendrocyte progenitor cells. […]

## C[C@H](CN1CC[C@@H](F)C1)[C@H]1CC[C@H]2/C(=C/C=C3C[C@@H](O)C[C@H](O)C3)CCC[C@]12C [Compound B013, (1R,3R)-5-(2-((1R,3aS,7aR,E)-1-((S)-1-((R)-3-fluoropyrrolidin-1-yl)propan-2-yl)-7a-methyloctahydro-4H-inden-4-ylidene)ethylidene)cyclohexane-1,3-diol]
[1]
  pEC50: 6.00 to 7.00

## C[C@H](CN1CC[C@@H](CC(F)F)C1)[C@H]1CC[C@H]2/C(=C/C=C3C[C@@H](O)C[C@H](O)C3)CCC[C@]12C [Compound B043, (1R,3R)-5-(2-((1R,3aS,7aR,E)-1-((S)-1-((S)-3-(2,2-difluoroethyl)pyrrolidin-1-yl)propan-2-yl)-7a-methyloctahydro-4H-inden-4-ylidene)ethylidene)cyclohexane-1,3-diol]
[2]
  mean (number of MBP-positive cells/number of Hoechst33342-positive cells): 0.53

## COC1(C)CCCN(C[C@@H](C)[C@H]2CC[C@H]3/C(=C/C=C4C[C@@H](O)C[C@H](O)C4)CCC[C@]23C)C1 (stereo partly drawn) [Compound C045b, (1R,3R)-5-(2-((1R,3aS,7aR,E)-1-((2S)-1-(3-methoxy-3-methylpiperidine-1-yl)propan-2-yl)-7a-methyloctahydro-4H-inden-4-ylidene)ethylidene)cyclohexane-1,3-diol]
[3]
  activation at 1 µM: ≥ 20%
